From patent US20220289766A1 (INFLAZOME LIMITED, priority 2019, published 2022)
Structures can show the parent of a compound that is named as a salt.

Legend:
[1] = target: T1, NLRP3 (Homo sapiens, UniProt Q96P20); assay: THP-1 cells pyroptosis assay; assay type: cell-based; set-up: Seed THP-1 cells (25,000 cells/well) containing 1.0 μg/ml LPS in 40 μl of RPMI medium; host or cells: THP-1 cells; conditions: LPS 1 μg/ml, compound 3 hrs, nigericin 5 μM 1 hr, resazurin readout
Method: THP-1 cells (ATCC #TIB-202) were grown in RPMI containing L-glutamine (Gibco #11835) supplemented with 1 mM sodium pyruvate (Sigma #S8636) and penicillin (100 units/ml)/streptomycin (0.1 mg/ml) (Sigma #P4333) in 10% Fetal Bovine Serum (FBS) (Sigma #F0804). The cells were routinely passaged and grown to confluency (˜10^6 cells/ml). On the day of the experiment, THP-1 cells were harvested and resuspended into RPMI medium (without FBS). The cells were then counted and viability ([…]) checked by Trypan blue (Sigma #T8154). Appropriate dilutions were made to give a concentration of 625,000 cells/ml. To this diluted cell solution was added LPS (Sigma #L4524) to give a 1 μg/ml Final Assay Concentration (FAC). 40 μl of the final preparation was aliquoted into each well of a 96-well plate. The plate thus prepared was used for compound screening.
The following method step-by-step assay was followed for compound screening. • 1. Seed THP-1 cells (25,000 cells/well) containing 1.0 μg/ml LPS in 40 μl of RPMI medium (without FBS) in 96-well, black walled, clear bottom cell culture plates coated with poly-D-lysine (VWR #734-0317) • 2. Add 5 μl compound (8 points half-log dilution, with 10 μM top dose) or vehicle (DMSO 0.1% FAC) to the appropriate wells • 3. Incubate for 3 hrs at 37° C., 5% CO2 • 4. Add 5 μl nigericin (Sigma #N7143) (FAC 5 μM) to all wells • 5. Incubate for 1 hr at 37° C., 5% CO2 • 6. At the end of the incubation period, spin plates at 300×g for 3 mins and remove supernatant • 7. Then add 50 μl of resazurin (Sigma #R7017) (FAC 100 μM resazurin in RPMI medium without FBS) and incubate plates for a further 1-2 hrs at 37° C. and 5% CO2 • 8. Plates were read in an Envision reader at Ex 560 nm and Em 590 nm • 9. IC50 data is fitted to a non-linear regression equation (log inhibitor vs response-variable slope 4-parameters)

[2] = target: T1, NLRP3; assay: Human whole blood IL-1β release assay; assay type: cell-based; set-up: Plate out 80 μl of whole blood containing 1 μg/ml of LPS in 96-well, clear bottom cell culture plate; from tissue; host or cells: human whole blood from healthy donors; conditions: LPS 1 μg/ml, compound 3 hrs, nigericin 10 μM 1 hr, IL-1β by AlphaLisa, read-out: HWB IC50
Method: For systemic delivery, the ability to inhibit NLRP3 when the compounds are present within the bloodstream is of great importance. For this reason, the NLRP3 inhibitory activity of a number of compounds in human whole blood was investigated in accordance with the following protocol.
Human whole blood in Li-heparin tubes was obtained from healthy donors from a volunteer donor panel. • 1. Plate out 80 μl of whole blood containing 1 μg/ml of LPS in 96-well, clear bottom cell culture plate (Corning #3585) • 2. Add 10 μl compound (8 points half-log dilution with 10 μM top dose) or vehicle (DMSO 0.1% FAC) to the appropriate wells • 3. Incubate for 3 hrs at 37° C., 5% CO2 • 4. Add 10 μl nigericin (Sigma #N7143) (10 μM FAC) to all wells • 5. Incubate for 1 hr at 37° C., 5% CO2 • 6. At the end of the incubation period, spin plates at 300×g for 5 mins to pellet cells and remove […] of supernatant and add to 96-well v-bottom plates for IL-1β analysis (note: these plates containing the supernatants can be stored at −80° C. to be analysed at a later date) • 7. IL-1β was measured according to the manufacturer protocol (Perkin Elmer-AlphaLisa IL-1 Kit AL220F-5000) • 8. IC50 data is fitted to a non-linear regression equation (log inhibitor vs response-variable slope 4-parameters)

T1 sequence (Q96P20 whole entry): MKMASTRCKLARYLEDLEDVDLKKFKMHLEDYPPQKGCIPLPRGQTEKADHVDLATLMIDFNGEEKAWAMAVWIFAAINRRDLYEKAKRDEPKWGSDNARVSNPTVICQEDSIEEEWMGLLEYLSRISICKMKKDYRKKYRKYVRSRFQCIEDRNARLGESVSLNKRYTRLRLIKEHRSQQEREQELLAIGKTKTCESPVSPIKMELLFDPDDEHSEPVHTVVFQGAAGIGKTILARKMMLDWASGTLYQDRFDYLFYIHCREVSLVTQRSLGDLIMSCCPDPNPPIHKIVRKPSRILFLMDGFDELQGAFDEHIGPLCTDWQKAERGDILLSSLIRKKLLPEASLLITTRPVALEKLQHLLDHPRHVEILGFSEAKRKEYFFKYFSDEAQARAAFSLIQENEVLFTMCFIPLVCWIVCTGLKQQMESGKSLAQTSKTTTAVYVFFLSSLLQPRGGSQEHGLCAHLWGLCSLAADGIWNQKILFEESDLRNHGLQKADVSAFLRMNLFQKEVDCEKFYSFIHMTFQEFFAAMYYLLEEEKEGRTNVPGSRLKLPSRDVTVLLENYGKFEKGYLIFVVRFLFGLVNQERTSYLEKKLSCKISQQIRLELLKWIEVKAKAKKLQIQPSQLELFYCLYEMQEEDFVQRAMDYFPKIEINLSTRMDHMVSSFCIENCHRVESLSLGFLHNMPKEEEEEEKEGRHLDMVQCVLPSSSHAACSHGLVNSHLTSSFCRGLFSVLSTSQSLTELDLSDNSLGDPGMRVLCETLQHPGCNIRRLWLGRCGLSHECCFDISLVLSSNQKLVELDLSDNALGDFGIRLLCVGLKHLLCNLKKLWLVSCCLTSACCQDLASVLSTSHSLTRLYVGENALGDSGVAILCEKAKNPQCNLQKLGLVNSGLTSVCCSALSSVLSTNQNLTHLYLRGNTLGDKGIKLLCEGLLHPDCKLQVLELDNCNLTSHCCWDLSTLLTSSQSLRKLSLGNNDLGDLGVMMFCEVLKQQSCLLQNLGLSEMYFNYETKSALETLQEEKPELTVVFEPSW

CN1CCCOc2cc(ccn2)-c2ccc3c(c2NC(=O)NS(=O)(=O)c2cc(n(C4CC4)n2)C1)CCC3 [Example 14, 17-cyclopropyl-20-methyl-24-oxa-14λ^6-thia-11,13,16,17,20, 26-hexaazapentacyclo-[23.3.1.1^15,18.0^2,10.0^5,9]triaconta-1(28),2,4,9,15,18(30),25(29),26-octaene-12,14,14-trione]
IC50 [1]: 100 to 500 nM | IC50 [2]: 1000 to 5000 nM

O=C1Nc2c(ccc3c2CCC3)-c2ccnc(c2)OCCCOCc2cc(nn2C2CC2)S(=O)(=O)N1 [Example 15, 17-cyclopropyl-20,24-dioxa-14λ^6-thia-11,13,16,17,26-pentaazapentacyclo-[23.3.1.1^15,18.0^2,10.0^5,9]triaconta-1(28),2,4,9,15,18(30),25(29),26-octaene-12,14,14-trione]
IC50 [1]: ≤ 100 nM | IC50 [2]: 100 to 500 nM

CN(C)Cc1cc2nn1CCCCCOc1cc(ccn1)-c1ccc3c(c1NC(=O)NS2(=O)=O)CCC3 [Example 17, 17-[(dimethylamino)-methyl]-24-oxa-14λ^6-thia-11,13,18,26,30-pentaazapentacyclo-[23.3.1.1^15,18.0^2,10.0^5,9]triaconta-1(28),2,4,9,15(30),16,25(29),26-octaene-12,14,14-trione]
IC50 [1]: ≤ 100 nM | IC50 [2]: 500 to 1000 nM

CN1CCOc2cc(ccn2)-c2ccc3c(c2NC(=O)NS(=O)(=O)c2ccn(n2)C(C)(C)C1)CCC3 [Example 18, 19,19,21-trimethyl-24-oxa-14λ^6-thia-11,13,18,21,26,30-hexaazapentacyclo-[23.3.1.1^15,18.0^2,10.0^5,9]triaconta-1(28),2,4,9,15(30),16,25(29),26-octaene-12,14,14-trione]
IC50 [1]: 100 to 500 nM | IC50 [2]: 500 to 1000 nM

O=C1Nc2c(ccc3c2CCC3)-c2ccnc(c2)OCCCCCS(=O)(=O)N1 [Example 19, 20-oxa-14λ^6-thia-11,13,22-triazatetracyclo-[19.3.1.0^2,10.0^5,9]triaconta-1(24),2,4,9,21(25),22-hexaene-12,14,14-trione]
IC50 [1]: 500 to 1000 nM | IC50 [2]: 500 to 1000 nM

O=C1Nc2c(ccc3c2CCC3)-c2ccnc(c2)OCCn2ccc(n2)S(=O)(=O)N1 [Example 20, 21-oxa-14λ^6-thia-11,13,18,23,27-pentaazapentacyclo-[20.3.1.1^15,18.0^2,10.0^5,9]heptacosa-1(25),2,4,9,15(27),16,22(26),23-octaene-12,14,14-trione]
IC50 [1]: ≤ 100 nM | IC50 [2]: 100 to 500 nM

CN(C)Cc1cc2nn1CCCOc1cc(ccn1)-c1ccc3c(c1NC(=O)NS2(=O)=O)CCC3 [Example 22, 17-[(dimethylamino)-methyl]-22-oxa-14λ^6-thia-11,13,18,24,28-pentaazapentacyclo-[21.3.1.1^15,18.0^2,10.0^5,9]octacosa-1(26),2,4,9,15(28),16,23(27),24-octaene-12,14,14-trione]
IC50 [1]: 100 to 500 nM | IC50 [2]: 100 to 500 nM

O=C1Nc2c(ccc3c2CCC3)-c2ccnc(c2)OCCCn2cc(F)c(n2)S(=O)(=O)N1 [Example 23, 16-fluoro-22-oxa-14λ^6-thia-11,13,18,24,28-pentaazapentacyclo-[21.3.1.1^15,18.0^2,10.0^5,9]octacosa-1(26),2,4,9,15(28),16,23(27),24-octaene-12,14,14-trione]
IC50 [1]: 100 to 500 nM | IC50 [2]: 100 to 500 nM

Cc1cc2c(c3c1-c1ccnc(c1)OCC(C)(C)n1ccc(n1)S(=O)(=O)NC(=O)N3)CCC2 [Example 24, 3,19,19-trimethyl-21-oxa-14λ^6-thia-11,13,18,23,27-pentaazapentacyclo-[20.3.1.1^15,18.0^2,10.0^5,9]heptacosa-1(25),2(10),3,5(9),15(27),16,22(26),23-octaene-12,14,14-trione, Sodium Salt]
IC50 [1]: ≤ 100 nM | IC50 [2]: 100 to 500 nM

O=C1Nc2c(ccc3c2CCC3)-c2ccnc(c2)OCCn2cc(F)c(n2)S(=O)(=O)N1 [Example 25, 16-fluoro-21-oxa-14λ^6-thia-11,13,18,23,27-pentaazapentacyclo-[20.3.1.1^15,18.0^2,10.0^5,9]heptacosa-1(25),2,4,9,15(27),16,22(26),23-octaene-12,14,14-trione]
IC50 [1]: ≤ 100 nM | IC50 [2]: ≤ 100 nM

Cc1cc2c(c3c1-c1ccnc(c1)OCC(C)(C)n1cc(F)c(n1)S(=O)(=O)NC(=O)N3)CCC2 [Example 26]
IC50 [1]: ≤ 100 nM | IC50 [2]: 100 to 500 nM

CC1(C)COc2cc(ccn2)-c2ccc3c(c2NC(=O)NS(=O)(=O)c2nn1cc2F)CCC3 [Example 27, 16-fluoro-19,19-dimethyl-21-oxa-14λ^6-thia-11,13,18,23,27-pentaaza-pentacyclo[20.3.1.1^15,18.0^2,10.0^5,9]-heptacosa-1(25),2,4,9,15(27),16,22(26),23-octaene-12,14,14-trione, sodium salt]
IC50 [1]: ≤ 100 nM | IC50 [2]: 100 to 500 nM

Cc1cc2c(c3c1-c1ccnc(c1)OCCn1ccc(n1)S(=O)(=O)NC(=O)N3)CCC2 [Example 28, 3-methyl-21-oxa-14λ^6-thia-11,13,18,23,27-pentaazapentacyclo-[20.3.1.1^15,18.0^2,10.0^5,9]heptacosa-1(25),2(10),3,5(9),15(27),16,22(26),23-octaene-12,14,14-trione, sodium salt]
IC50 [1]: ≤ 100 nM | IC50 [2]: 100 to 500 nM

Cc1cc2c(c3c1-c1ccnc(c1)OCCn1cc(F)c(n1)S(=O)(=O)NC(=O)N3)CCC2 [Example 29, 16-fluoro-3-methyl-21-oxa-14λ^6-thia-11,13,18,23,27-pentaaza-pentacyclo[20.3.1.1^15,18.0^2,10.0^5,9]-heptacosa-1(25),2(10),3,5(9),15(27),16,22(26),23-octaene-12,14,14-trione, sodium salt]
IC50 [1]: ≤ 100 nM | IC50 [2]: 100 to 500 nM

CC(C)c1cc(F)cc2c1NC(=O)NS(=O)(=O)c1nn(cc1F)C(C)(C)COc1cc-2ccn1 [Example 30, 4,13-difluoro-16,16-dimethyl-6-(propan-2-yl)-18-oxa-11λ^6-thia-8,10,15,20,24-pentaazatetracyclo-[17.3.1.1^12,15.0^2,7]tetracosa-1(22),2(7),3,5,12(24),13,19 (23),20-octaene-9,11,11-trione, sodium salt]
IC50 [1]: ≤ 100 nM | IC50 [2]: 100 to 500 nM

O=C1Nc2c(ccc3c2CCC3)-c2ccnc(c2)OCCc2cccc(c2)S(=O)(=O)N1 [Example 31, 22-oxa-14λ^6-thia-11,13,24-triaza-pentacyclo-[21.3.1.1^15,19.0^2,10.0^5,9]-octacosa-1(26),2,4,9,15(28),16,18,23(27),24-nonaene-12,14,14-trione, sodium salt]
IC50 [1]: ≤ 100 nM | IC50 [2]: 100 to 500 nM

CC1(C)COc2nccc(c2F)-c2ccc3c(c2NC(=O)NS(=O)(=O)c2ccn1n2)CCC3 [Example 32, 26-fluoro-19,19-dimethyl-21-oxa-14λ^6-thia-11,13,18,23,27-pentaaza-pentacyclo[20.3.1.1^15,18.0^2,10.0^5,9]-heptacosa-1(26),2,4,9,15(27),16,22,24-octaene-12,14,14-trione, sodium salt]
IC50 [1]: 100 to 500 nM | IC50 [2]: 100 to 500 nM

Cc1cnc2cc1-c1ccc3c(c1NC(=O)NS(=O)(=O)c1ccn(n1)C(C)(C)CO2)CCC3 [Example 33, 19,19,25-trimethyl-21-oxa-14λ^6-thia-11,13,18,23,27-pentaaza-pentacyclo-[20.3.1.1^15,18.0^2,10.0^5,9]-heptacosa-1(26),2,4,9,15(27),16,22,24-octaene-12,14,14-trione, sodium salt]
IC50 [1]: 500 to 1000 nM | IC50 [2]: 1000 to 5000 nM
